# Laboratory results reported in patent US7067625B1, “Isolated TWIK-1 potassium channel proteins” (Centre National de la Recherche Scientifique - CNRS, priority 1996, dated 2006).
# Assays:
# [1] = biological target: T1, TWIK-1 (Homo sapiens, UniProt O00180); assay: Imposed voltage (two-microelectrode voltage-clamp) recording of TWIK-1 K+ currents in Xenopus oocytes injected with TWIK-1 cRNA; format: cell-based; design: expressed in transfected cells; host or cells: Xenopus laevis oocytes injected with cRNA transcribed from pEXO-TWIK-1; conditions: for sensitivity of the TWIK-1 channel to K+ channel openers: 100 μM
# T1 sequence (O00180 1-336): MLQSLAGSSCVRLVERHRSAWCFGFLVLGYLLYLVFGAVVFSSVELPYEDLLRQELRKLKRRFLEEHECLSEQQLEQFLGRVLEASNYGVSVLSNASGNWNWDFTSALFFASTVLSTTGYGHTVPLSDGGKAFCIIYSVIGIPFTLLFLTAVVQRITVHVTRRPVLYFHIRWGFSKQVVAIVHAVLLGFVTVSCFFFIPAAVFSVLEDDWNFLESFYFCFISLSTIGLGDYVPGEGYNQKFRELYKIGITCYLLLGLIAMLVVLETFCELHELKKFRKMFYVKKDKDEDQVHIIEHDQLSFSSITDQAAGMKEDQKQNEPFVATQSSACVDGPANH
# Protocol: A complementary RNA (cRNA) was transcribed of this construction and injected in the oocytes of X. laevis.
# The TWIK-1 coding sequence was amplified using a low-error rate DNA polymerase (Pwo DNA pol, Boehringer) and subcloned in the plasmid pEXOii so as to yield pEXO-TWIK-1. Mutations were performed using the whole plasmid pEXO-TWIK-1 with a highly reliable PCR extension kit (Boehringer) and two adjacent primers. […] The product of the PCR was linearized by the enzyme BamHI and the cRNA were synthesized using a T7 RNA polymerase (Stratagene).
# In a 0.3-ml perfusion chamber, a single oocyte was impaled on two standard glass microelectrodes (0.5–2.0 MW) charged with 3 M KCl and maintained under voltage-clamp with a Dagan TEV200 amplifier. […] Stimulation of the preparation, data acquisition and analyses were carried out with the pClamp program (Axon Instruments, USA).
# [2] = biological target: T1, TWIK-1; assay: Single channel patch-clamp recordings (attached and inside-out patch) of TWIK-1 in oocytes
# Protocol: The pipettes were filled with a strong K^+ solution (40 mM KCl, 100 mM of potassium methane sulfonate, 1.8 mM CaCl2, 2 m M MgCl2 and 5 mM HEPES adjusted to pH 7.4 with KOH). 100 μM of GdCl3 was added to the pipette solution to inhibit the action of the activated channels. The inside-out patches were perfused with a solution containing 140 m M KCl, 10 mM CaCl2, 5 mM HEPES adjusted to pH 7.2 with KOH and 5 mM EGTA added daily. The single channel signals were filtered at 3.5 kHz and analyzed with the Biopatch program (Bio-Logic, Grenoble, France).
# [3] = read-out: inhibition of TWIK-1 currents
smiles,measurement,setting,value
Nc1ccncc1 [4-aminopyridine],inhibition at 1000 µM,[1]; 1 mM,< 10%
CCCCCCC[N+](CC)(CC)CCCCc1ccc(Cl)cc1 [clofilium],inhibition at 30 µM,[1],< 10%
O=C=O [CO2],sensitivity of channel activity to acidification of the internal solution,"[2]; after excision of the patch, bubbling of CO2",insensitive
same,reduction in the TWIK-1 currents (of control amplitude),[1]; intracellular acidification by superfusion with CO2-enriched solution,greater than 95%
"O=[N+]([O-])c1ccc(O)c([N+](=O)[O-])c1 [DNP, dinitrophenol]",reduction in the TWIK-1 currents (of control amplitude),"[1]; intracellular acidification by DNP, 1 mM",80%
CC(C)C[C@@H]1NC(=O)[C@H](C)NC(=O)[C@H]([C@@H](C)O)NC(=O)[C@H](CCC(=O)O)NC(=O)[C@@H]2CCCN2C(=O)[C@H](C)NC(=O)[C@H](CCCCN)NC(=O)[C@@H]2CSSC[C@@H](C(=O)N[C@@H](CCC(N)=O)C(=O)N[C@@H](CCC(N)=O)C(=O)N[C@@H](Cc3cnc[nH]3)C(N)=O)NC(=O)[C@H](CCCNC(=N)N)NC(=O)[C@H](CCCNC(=N)N)NC(=O)[C@H](C)NC(=O)[C@H](CSSC[C@H](N)C(=O)N[C@@H](CC(N)=O)C(=O)N2)NC1=O [apamin],inhibition at 0.3 µM,[1]; [3],< 10%
[Ba+2] [Ba^2+],IC50,"[1]; Xenopus oocytes, +30 mV depolarization from HP -80 mV, read-out: IC50 of inhibition of the K+ currents of TWIK-1",100 µM
CC[N+](CC)(CC)CC [TEA],inhibition of TWIK-1 currents,[1]; 20 mM,30%
COc1ccc(Cl)cc1C(=O)NCCc1ccc(S(=O)(=O)NC(=O)NC2CCCCC2)cc1 [glibenclamide],inhibition at 30 µM,[1],< 10%
Nc1ncnc2c1ncn2[C@@H]1O[C@H](COP(=O)(O)OP(=O)(O)OP(=O)(O)O)[C@@H](O)[C@H]1O [ATP],effect on the activity of the TWIK-1 channel,[2]; excised patch perfused with 10 mM,does not induce any effect
"CCCCCCCCCC(=O)O[C@@H]1[C@@H](C)[C@@]2(O)[C@@H](C=C(CO)C[C@@]3(O)C(=O)C(C)=C[C@@H]23)[C@@H]2C(C)(C)[C@]12OC(=O)CCCCCCCCC [PDA, 4α-phorbol-12, 13 didecanoate]",effect on the TWIK-1 currents,[1]; 1 μM,has no effect
CNc1ccc2oc(C[C@H]3O[C@@]4(CC[C@H]3C)O[C@H]([C@H](C)C(=O)c3ccc[nH]3)[C@H](C)C[C@H]4C)nc2c1C(=O)O [A23187],effect on the properties of the TWIK-1 channel,"[1]; 1 μM, elevation of cytoplasmic Ca2+",without effect
"CCCCCCCCCCCCCC(=O)O[C@@H]1[C@@H](C)[C@@]2(O)[C@@H](C=C(CO)C[C@]3(O)C(=O)C(C)=C[C@@H]23)[C@@H]2C(C)(C)[C@]12OC(C)=O [PMA, phorbol-12 myristate acetate]",channels revealed in an attached patch initially expressing a single channel,"[2]; attached patch, 30 nM PMA, +60 mV",at least five channels
same,effect on the TWIK-1 currents,"[1]; 30 nM, perfusion 10 minutes",increases the TWIK-1 currents
CC1(C)Oc2ccc(C#N)cc2C(N2CCCC2=O)C1O (stereo not drawn) [cromakaline],sensitivity of the TWIK-1 channel to K+ channel openers,[1],not sensitive
Nc1ncnc2c1nc(Cl)n2[C@@H]1O[C@@H]2COP(=O)(O)O[C@H]2[C@H]1O [8-Cl-AMPc],effect on the activity of TWIK-1,[1]; 300 μM,does not affect
CCCCc1oc2ccccc2c1C(=O)c1cc(I)c(OCCN(CC)CC)c(I)c1 [amiodarone],inhibition at 100 µM,[1]; [3],< 10%
CC(N/C(=N\C#N)Nc1ccncc1)C(C)(C)C (stereo not drawn) [pinacidil],sensitivity of the TWIK-1 channel to K+ channel openers,[1],not sensitive
